Experimental data reported in patent publication US9274109B2, “Gut flora-derived extracellular vesicles, and method for searching for a disease model, vaccine, and candidate drug and for diagnosis using the same” (AEON MEDIX INC., priority 2009, dated 2016).
Counter-ions that a name gives are not always drawn. Like-named read-outs stand apart in the source and are kept apart here.

Legend:
[1] = system: mouse peritoneal macrophages; test: Ex vivo IL-6 release from mouse peritoneal macrophages with E. coli-derived extracellular vesicles; assay type: cell-based; conditions: 10 μM prodrug
Procedure: FIG. 41 is a graph showing IL-6 levels obtained by treating mouse peritoneal macrophages with 10 μM prodrugs in the presence of E. coli-derived extracellular vesicles (EC_EV)

[2] = system: mouse macrophages (RAW 264.7); test: In vitro screening: extracellular vesicle-induced IL-6 secretion from macrophages; assay type: cell-based; conditions: for activity at 10 µM: Mus musculus, RAW 264.7, vesicles 100 ng/ml
[3] = system: mouse macrophages (RAW 264.7); test: as above; assay type: cell-based; conditions: RAW264.7, 15 h, read-out: level of IL-6 as percentage of the positive control (kinase inhibitors)
Procedure: FIG. 35 is a schematic diagram showing the discovery of substances inhibitory of the gut flora-derived extracellular vesicles-induced release of IL-6. The mouse macrophages (RAW 264.7) were treated for 15 hours with the gut flora-derived extracellular vesicles (100 ng/ml) alone, separated by the method of Example 3, or in combination with a drug candidate (10 μM), in a 37° C. incubator. The culture media was collected and centrifuged at 4° C., 500×g for 10 min and then at 4° C., 3000×g for 20 min. IL-6 in the supernatant was quantitatively analyzed by ELISA. These processes account, at least in part, for a method for in vitro screening drug candidates inhibitory of the gut flora-derived extracellular vesicle-induced secretion of IL-6, by which drug candidates preventive or therapeutic of gut flora-derived extracellular vesicles-caused diseases can be provided.
According to the method established in Example 12, mouse macrophages (RAW 264.7) were treated with neither extracellular vesicles nor any drug candidate (negative control), with E. coli-derived extracellular vesicles (0.1 μg/ml) alone (positive control) or with the extracellular vesicles (0.1 μg/ml) in combination with 10 μM of one selected from among 80 different kinase inhibitors ((kinase inhibitor library, BIOMOL No. 2832: PD-98059, U-0126, SB-203580, H-7, H-9, AG-494, AG-825, Lavendustin A, RG-14620, Tytphostin 23, Tytphostin 25, Tytphostin 46, Tytphostin 47, Tytphostin 51, Tytphostin 1, Tytphostin 9, Tytphostin AG 1288, Tytphostin AG 1478, Tytphostin AG 1295, HNMPA, Damnacanthal, Piceatannol, AG-490, AG-126, AG-370, AG-879, LY 294002, Wortmannin, GF 109203X, Hypericin, Sphingosine, H-89, H-8, HA-1004, HA-1077, HDBA, KN-62, KN-93, ML-7, ML-9, 2-Aminopurine, N9-Isopropyl-olomoucine, Olomoucine, iso-olomoucine, Roscovitine, LFM-A13, SB-202190, ZM 336372, SU 4312, AG-1296, Rottlerin, Genistein, Daiazein, Erbstatin analog, Quercetin dehydrate, SU 1498, ZM 449829, DRB (5,6-Dichloro-1-b-D-ribofuranosylbenzimidazole), HBDDE (2,2′,3,3′,4,4′-Hexahydroxy-1,1′-biphenyl-6,6′-dimethanol dimethyl ether), Indirubin, Indirubin-3′-monoxime, Y-27632, Kenpaullone, Terreic acid, BML-257, BML-259, Apigenin, BML-265 (Erlotinib analog), Rapamycin). After 15 hours of treatment, IL-6 was quantitatively analyzed by ELISA.

[4] = system: C57BL/6 mice; test: In vivo serum IL-6 in extracellular vesicle-induced sepsis mouse model; conditions: 10 mg/kg i.p.; vesicles 5 μg i.p.; 6 hours; ELISA
Procedure: In vivo assay was performed to examine whether the prodrugs discovered in Example 15 exert anti-inflammatory effects in the body. To this end, the sepsis mouse models that were established by the intraperitoneal injection of 5 μg of E. coli-derived extracellular vesicles into C57BL/6 mice (male, 6 weeks old, 4 mice in each group) as in Example 6 was intraperitoneally injected with Haloperidol and Doxepein at a dose of 10 mg/kg, each. Sera were taken 6 hours later.

[5] = system: mouse macrophages (RAW 264.7); test: IL-6 secretion from macrophages treated with extracellular vesicles from small intestinal fluid; assay type: cell-based; conditions: RAW 264.7, ELISA, versus vesicles alone
Description: Extracellular vesicles were separated from small intestinal fluids of normal mice and DSS-induced mouse model of […]. To this end, mice were operated on to excise the small intestine. The peyer's patch and liquid were removed from the excised small intestine which was then cut at regular lengths of about 5 cm. The intestinal pieces were transversely cut and washed with physiological saline to remove impurities therefrom. They were again cut into pieces with dimensions of 1 cm×1 cm and vortexed five times for five sec per time in 30 mL of physiological saline. After the removal of intestinal tissues and impurities by centrifugation, the supernatant was ultra-centrifuged to separate extracellular vesicles.
FIGS. 3 and 4 show the secretion of the inflammatory cytokine IL-6 in mouse macrophages (RAW 264.7) treated with various concentrations of the extracellular vesicles separated from the small intestinal fluids of normal mice and DSS-induced mouse models of IBD.
FIG. 5 provides the results after an experiment was done to see whether the exracellular vesicles from the DSS-induced mouse model of IBD contained those derived from Gram-negative bacteria.

[6] = RAW264.7, 15 h, read-out: IL-6 level as percentage of the positive control (prodrugs)

Molecule	IL-6 release from mouse peritoneal macrophages [1]	activity at 10 µM [2, 6] [%]	activity at 10 µM [3] [%]	other results
CN(C)CCC=C1c2ccccc2CCc2ccccc21 [Amitriptyline]	inhibitory effect	< 80		
O=c1cc(-c2ccc(O)cc2)oc2cc(O)cc(O)c12 [Apigenin, 5,7-dihydroxy-2-(4-hydroxyphenyl)chromen-4-one]			< 50	
CC(C)c1cnc(NC(=O)Cc2ccccc2)s1 [BML-259, N-(5-Isopropylthiazol-2-yl)phenylacetamide]			< 50	
CN(C)CCC=C1c2ccccc2C=Cc2ccccc21 [Cyclobenzaprine]	inhibitory effect	< 80		
OC[C@H]1O[C@H](n2cnc3cc(Cl)c(Cl)cc32)[C@@H](O)[C@H]1O [DRB, (2S,3S,4R,5R)-2-(5,6-dichlorobenzimidazol-1-yl)-5-(hydroxymethyl)oxolane-3,4-diol]			< 50	
CNCCCN1c2ccccc2CCc2ccccc21 [Desipramine]	inhibitory effect	< 80		
CN(C)CCC=C1c2ccccc2COc2ccccc21 [Doxepin]	inhibitory effect	< 80		serum IL-6 level [4]: effectively suppressed
Cl.Cl.OCCN1CCN(CCCN2c3ccccc3Sc3ccc(C(F)(F)F)cc32)CC1 [Fluphenazine dichloride]	inhibitory effect			
CN(C)CCCn1cc(C2=C(c3c[nH]c4ccccc34)C(=O)NC2=O)c2ccccc21 [GF109203X, 3-[1-[3-(dimethylamino)propyl]indol-3-yl]-4-(1H-indol-3-yl)pyrrole-2,5-dione]			< 50	
CC1CNCCN1S(=O)(=O)c1cccc2cnccc12 (centres unmarked) [H-7, 5-(2-methylpiperazin-1-yl)sulfonylisoquinoline dihydrochloride]			< 50	
O=C(CCCN1CCC(O)(c2ccc(Cl)cc2)CC1)c1ccc(F)cc1 [Haloperidol]	inhibitory effect	< 80		serum IL-6 level [4]: effectively suppressed
CN(C)CCCN1c2ccccc2CCc2ccccc21 [Imipramine]	inhibitory effect	< 80		
O=C1N=c2ccccc2=C1c1[nH]c2ccccc2c1NO [Indirubin-3′monoxime, 3-[3-(hydroxyamino)-1H-indol-2-yl]indol-2-one]			< 50	
O=C1Cc2c([nH]c3ccc(Br)cc23)-c2ccccc2N1 [Kenpaullone, 9-bromo-7,12-dihydro-5H-indolo[3,2-d][1]benzazepin-6-one]			< 50	
O=c1cc(N2CCOCC2)oc2c(-c3ccccc3)cccc12 [LY294002, 2-morpholin-4-yl-8-phenylchromen-4-one]			< 50	
O=S(=O)(c1cccc2c(I)cccc12)N1CCCNCC1 [ML-7, 1-(5-iodonaphthalen-1-yl)sulfonyl-1,4-diazepane hydrochloride]			< 50	
O=S(=O)(c1cccc2c(Cl)cccc12)N1CCCNCC1 [ML-9, 1-(5-chloronaphthalen-1-yl)sulfonyl-1,4-diazepane hydrochloride]			< 50	
CNCCCC12CCC(c3ccccc31)c1ccccc12 [Maprotiline]	inhibitory effect	< 80		
Cc1ccccc1C(OCCN(C)C)c1ccccc1 (centres unmarked) [Orphenadrine]	inhibitory effect	< 80		
COc1ccc2c(c1)c(OC(C)C)c(C(N)=O)[s+]2[O-] (centres unmarked) [PD-144795, 5-methoxy-3-(1-methylethoxy)benzo(b)thiophene-2-carboxamide-1-oxide]				IL-6 secretion at graded concentrations ([2]; 0.1, 1, 5, 10 μM, vesicles 100 ng/ml): inhibits IL-6 secretion in a dose-dependent manner; activity at 10 µM ([2]; RAW264.7, 10 μM, read-out: IL-6 level as percentage of the positive control (phosphatase inhibitors)): < 50%
CC(C)(C)c1ccc(C(O)CCCN2CCC(C(O)(c3ccccc3)c3ccccc3)CC2)cc1 (centres unmarked) [Terfenadine]	inhibitory effect	< 80		
Cc1c(Cl)cccc1Nc1ccccc1C(=O)O [Tolfenamic acid]	inhibitory effect	< 80		
O=c1n(CCCN2CCN(c3cccc(Cl)c3)CC2)nc2ccccn12 [Trazodone]	inhibitory effect	< 80		
NS(=O)(=O)c1cc2c(cc1Cl)NC(C(Cl)Cl)NS2(=O)=O (centres unmarked) [Trichlormethiazide]		< 80		
COc1ccc(CCN(C)CCCC(C#N)(c2ccc(OC)c(OC)c2)C(C)C)cc1OC (centres unmarked) [Verapamil]		< 80		
C=CC(=O)c1ccc2ccccc2c1 [ZM449829, 1-(2-Naphthalenyl)-2-propen-1-one]			< 50	
polymyxin B				secretion of IL-6 induced by extracellular vesicles from DSS-induced IBD mice, in combination with polymyxin B [5]: decreased
